Earlier results, collected in patent US20190045778A1, “EMULSIFIABLE CONCENTRATES” (priority 2016, published 2019).
Read-outs that look alike come from different tables or passages of the source.

Compound	Water Solubility (at 20° C.) [g/L at 20 °C]	Water Solubility (at 25° C.) [g/L at 25 °C]
CN/C(=N\[N+](=O)[O-])NCc1cnc(Cl)s1 [clothianidin]	0.33	–
thiamethoxam	–	4.1
N#C/N=C1/SCCN1Cc1ccc(Cl)nc1 [thiacloprid]	0.1	–
